Results reported in ChEMBL document CHEMBL1134788, “Oxindole derivatives as orally active potent growth hormone secretagogues” (J Med Chem, 2001).

Species: Rattus norvegicus
Assay: In vitro growth hormone releasing activity was measured in rat pituitary cells
Assay type: functional, cell-based
Conditions: Pituitary gland cell

## CCN(CC)CCN1C(=O)C(O)(c2ccc3ccccc3c2)c2c(Br)cccc21 (centres undefined)
  EC50: 77 nM

## CCN(CC)CCN1C(=O)C(O)(c2ccc3ccccc3c2)c2c1cc(C(N)=O)cc2C(F)(F)F (centres undefined)
  EC50: 18 nM

## CCN(CC)CCN1C(=O)C(O)(c2cc3ccccc3cc2Cl)c2c1cc(C(N)=O)cc2C(F)(F)F (centres undefined)
  EC50: 3.5 nM

## CCN(CC)CCN1C(=O)C(O)(c2ccc3ccccc3c2)c2c(Cl)cc(C#CCO)cc21 (centres undefined)
  EC50: 310 nM

## CCN(CC)CCN1C(=O)C(O)(c2ccc3ccccc3c2)c2c1cc(C#CCCC(N)=O)cc2C(F)(F)F (centres undefined)
  EC50: 30 nM

## CCN(CC)CCN1C(=O)C(O)(c2ccc3ccccc3c2)c2ccc(Br)cc21 (centres undefined)
  EC50: 380 nM

## CCN(CC)CCN1C(=O)C(O)(c2ccc3ccccc3c2)c2c1cc(C#CCO)cc2C(F)(F)F (centres undefined)
  EC50: 310 nM

## CCN(CC)CCN1C(=O)[C@](O)(c2cc3ccccc3cc2Cl)c2c1cc(C(N)=O)cc2C(F)(F)F
  EC50: 210 nM

## CCN(CC)CCN1C(=O)[C@@](O)(c2cc3ccccc3cc2Cl)c2c1cc(C(N)=O)cc2C(F)(F)F
  EC50: 3 nM

## CCN(CC)CCN1C(=O)C(O)(c2ccc3ccccc3c2)c2c1cc(C#CCCC(=O)N1CCOCC1)cc2C(F)(F)F (centres undefined)
  EC50: 30 nM

## CCN(CC)CCN1C(=O)C(O)(c2ccc3ccccc3c2)c2cc(Br)ccc21 (centres undefined)
  EC50: > 1000 nM

## CCN(CC)CCN1C(=O)C(O)(c2ccc3ccccc3c2)c2ccccc21 (centres undefined)
  EC50: > 1000 nM

## CCN(CC)CCN1C(=O)C(O)(c2ccc3ccccc3c2)c2c(C#CCO)cc(Cl)cc21 (centres undefined)
  EC50: > 1000 nM

## CCN(CC)CCN1C(=O)C(O)(c2ccc3ccccc3c2)c2cccc(Br)c21 (centres undefined)
  EC50: > 1000 nM
